Measured values: PubChem BioAssay (NCI)
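48-hour exposure; five concentrations; linearly interpolated endpoints. At the GI50, growth is halved. The concentration for full growth arrest is given as TGI.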

Experiments:
Assay in all cases: inhibition of tumour cell growth, NCI panel, 48 h
786-0 renal = tested on: 786-0 renal
A498 renal = tested on: A498 renal
A549 NSCLC = tested on: A549 NSCLC
ACHN renal = tested on: ACHN renal
BT-549 breast = tested on: BT-549 breast
CAKI-1 renal = tested on: CAKI-1 renal
CCRF-CEM leukemia = tested on: CCRF-CEM leukemia
COLO 205 colon = tested on: COLO 205 colon
DU-145 prostate = tested on: DU-145 prostate
EKVX NSCLC = tested on: EKVX NSCLC
HCC-2998 colon = tested on: HCC-2998 colon
HCT-116 colon = tested on: HCT-116 colon
HCT-15 colon = tested on: HCT-15 colon
HL-60(TB) leukemia = tested on: HL-60(TB) leukemia
HOP-62 NSCLC = tested on: HOP-62 NSCLC
HOP-92 NSCLC = tested on: HOP-92 NSCLC
HS 578T breast = tested on: HS 578T breast
HT29 colon = tested on: HT29 colon
IGROV1 ovarian = tested on: IGROV1 ovarian
K-562 leukemia = tested on: K-562 leukemia
KM12 colon = tested on: KM12 colon
LOX IMVI melanoma = tested on: LOX IMVI melanoma
M14 melanoma = tested on: M14 melanoma
MALME-3M melanoma = tested on: MALME-3M melanoma
MCF7 breast = tested on: MCF7 breast
MDA-MB-231 breast = tested on: MDA-MB-231 breast
MDA-MB-435 = tested on: MDA-MB-435
MDA-N = tested on: MDA-N
MOLT-4 leukemia = tested on: MOLT-4 leukemia
NCI-H226 lung = tested on: NCI-H226 lung
NCI-H23 lung = tested on: NCI-H23 lung
NCI-H460 lung = tested on: NCI-H460 lung
NCI-H522 lung = tested on: NCI-H522 lung
NCI/ADR-RES ovarian = tested on: NCI/ADR-RES ovarian
OVCAR-3 ovarian = tested on: OVCAR-3 ovarian
OVCAR-4 ovarian = tested on: OVCAR-4 ovarian
OVCAR-5 ovarian = tested on: OVCAR-5 ovarian
OVCAR-8 ovarian = tested on: OVCAR-8 ovarian
PC-3 prostate = tested on: PC-3 prostate
RPMI-8226 leukemia = tested on: RPMI-8226 leukemia
RXF 393 renal = tested on: RXF 393 renal
SF-268 CNS = tested on: SF-268 CNS
SF-295 CNS = tested on: SF-295 CNS
SF-539 CNS = tested on: SF-539 CNS
SK-MEL-2 melanoma = tested on: SK-MEL-2 melanoma
SK-MEL-28 melanoma = tested on: SK-MEL-28 melanoma
SK-MEL-5 melanoma = tested on: SK-MEL-5 melanoma
SK-OV-3 ovarian = tested on: SK-OV-3 ovarian
SN12C renal = tested on: SN12C renal
SNB-19 CNS = tested on: SNB-19 CNS
SNB-75 CNS = tested on: SNB-75 CNS
SR leukemia = tested on: SR leukemia
SW-620 colon = tested on: SW-620 colon
T-47D breast = tested on: T-47D breast
TK-10 renal = tested on: TK-10 renal
U251 CNS = tested on: U251 CNS
UACC-257 melanoma = tested on: UACC-257 melanoma
UACC-62 melanoma = tested on: UACC-62 melanoma
UO-31 renal = tested on: UO-31 renal

SMILES: CCOC(=O)NN(C(=O)OCC)C(=C(c1ccccc1)N1CCOCC1)N(NC(=O)OCC)C(=O)OCC
- TGI (786-0 renal): > 100 µM
- TGI (A498 renal): > 100 µM
- TGI (A549 NSCLC): > 100 µM
- TGI (ACHN renal): > 100 µM
- TGI (BT-549 breast): > 100 µM
- TGI (CAKI-1 renal): > 100 µM
- TGI (CCRF-CEM leukemia): > 100 µM
- TGI (COLO 205 colon): > 100 µM
- TGI (DU-145 prostate): > 100 µM
- TGI (EKVX NSCLC): > 100 µM
- TGI (HCC-2998 colon): > 100 µM
- TGI (HCT-116 colon): > 100 µM
- TGI (HCT-15 colon): > 100 µM
- TGI (HL-60(TB) leukemia): > 100 µM
- TGI (HOP-62 NSCLC): > 100 µM
- TGI (HOP-92 NSCLC): > 100 µM
- TGI (HS 578T breast): > 100 µM
- TGI (HT29 colon): > 100 µM
- TGI (IGROV1 ovarian): > 100 µM
- TGI (K-562 leukemia): > 100 µM
- TGI (KM12 colon): > 100 µM
- TGI (LOX IMVI melanoma): > 100 µM
- TGI (M14 melanoma): > 100 µM
- TGI (MALME-3M melanoma): > 100 µM
- TGI (MCF7 breast): > 100 µM
- TGI (MDA-MB-231 breast): > 100 µM
- TGI (MDA-MB-435): > 100 µM
- TGI (MDA-N): > 100 µM
- TGI (MOLT-4 leukemia): > 100 µM
- TGI (NCI-H226 lung): > 100 µM
- TGI (NCI-H23 lung): > 100 µM
- TGI (NCI-H460 lung): > 100 µM
- TGI (NCI-H522 lung): > 100 µM
- TGI (NCI/ADR-RES ovarian): > 100 µM
- TGI (OVCAR-3 ovarian): > 100 µM
- TGI (OVCAR-4 ovarian): > 100 µM
- TGI (OVCAR-5 ovarian): > 100 µM
- TGI (OVCAR-8 ovarian): > 100 µM
- TGI (PC-3 prostate): > 100 µM
- TGI (RPMI-8226 leukemia): > 100 µM
- TGI (RXF 393 renal): > 100 µM
- TGI (SF-268 CNS): > 100 µM
- TGI (SF-295 CNS): > 100 µM
- TGI (SF-539 CNS): > 100 µM
- TGI (SK-MEL-2 melanoma): > 100 µM
- TGI (SK-MEL-28 melanoma): > 100 µM
- TGI (SK-MEL-5 melanoma): > 100 µM
- TGI (SK-OV-3 ovarian): > 100 µM
- TGI (SN12C renal): > 100 µM
- TGI (SNB-19 CNS): > 100 µM
- TGI (SNB-75 CNS): > 100 µM
- TGI (SR leukemia): > 100 µM
- TGI (SW-620 colon): > 100 µM
- TGI (T-47D breast): > 100 µM
- TGI (TK-10 renal): > 100 µM
- TGI (U251 CNS): > 100 µM
- TGI (UACC-257 melanoma): > 100 µM
- TGI (UACC-62 melanoma): > 100 µM
- TGI (UO-31 renal): > 100 µM

SMILES: O=c1c(Br)c(-c2ccccc2)[nH]c2ccccc12
- GI50 (A498 renal): 31.6 µM
- TGI (A498 renal): > 100 µM
- GI50 (A549 NSCLC): 0.168 µM
- TGI (A549 NSCLC): 1.12 µM
- TGI (ACHN renal): > 100 µM
- TGI (BT-549 breast): > 100 µM
- GI50 (CAKI-1 renal): 0.066 µM
- TGI (CAKI-1 renal): 0.892 µM
- TGI (CCRF-CEM leukemia): > 100 µM
- TGI (COLO 205 colon): > 100 µM
- TGI (DU-145 prostate): > 100 µM
- GI50 (EKVX NSCLC): 41.5 µM
- TGI (EKVX NSCLC): > 100 µM
- GI50 (HCC-2998 colon): > 100 µM
- TGI (HCC-2998 colon): > 100 µM
- TGI (HCT-116 colon): > 100 µM
- TGI (HCT-15 colon): > 100 µM
- TGI (HL-60(TB) leukemia): 56.6 µM
- TGI (HOP-62 NSCLC): > 100 µM
- GI50 (HOP-92 NSCLC): 19 µM
- TGI (HOP-92 NSCLC): > 100 µM
- TGI (HS 578T breast): > 100 µM
- TGI (HT29 colon): > 100 µM
- GI50 (IGROV1 ovarian): > 89.4 µM
- TGI (IGROV1 ovarian): > 100 µM
- GI50 (K-562 leukemia): 28.9 µM
- TGI (K-562 leukemia): > 100 µM
- GI50 (KM12 colon): 5.63 µM
- TGI (KM12 colon): 63.8 µM
- TGI (LOX IMVI melanoma): > 100 µM
- TGI (M14 melanoma): > 100 µM
- TGI (MALME-3M melanoma): > 100 µM
- TGI (MCF7 breast): > 100 µM
- TGI (MDA-MB-231 breast): 11.8 µM
- TGI (MDA-MB-435): > 100 µM
- TGI (MDA-N): > 85.4 µM
- GI50 (MOLT-4 leukemia): 20.8 µM
- TGI (MOLT-4 leukemia): > 75.6 µM
- GI50 (NCI-H226 lung): 37.1 µM
- TGI (NCI-H226 lung): > 100 µM
- TGI (NCI-H23 lung): > 100 µM
- GI50 (NCI-H460 lung): 3.54 µM
- TGI (NCI-H460 lung): > 100 µM
- GI50 (NCI-H522 lung): > 100 µM
- TGI (NCI-H522 lung): > 100 µM
- TGI (NCI/ADR-RES ovarian): > 100 µM
- TGI (OVCAR-3 ovarian): > 100 µM
- TGI (OVCAR-4 ovarian): > 100 µM
- GI50 (OVCAR-5 ovarian): > 100 µM
- TGI (OVCAR-5 ovarian): > 100 µM
- TGI (OVCAR-8 ovarian): > 100 µM
- GI50 (PC-3 prostate): 23.6 µM
- TGI (PC-3 prostate): > 78.3 µM
- TGI (RPMI-8226 leukemia): > 100 µM
- TGI (RXF 393 renal): > 100 µM
- GI50 (SF-268 CNS): > 100 µM
- TGI (SF-268 CNS): > 100 µM
- GI50 (SF-295 CNS): 32.9 µM
- TGI (SF-295 CNS): > 100 µM
- TGI (SF-539 CNS): > 100 µM
- GI50 (SK-MEL-2 melanoma): > 100 µM
- TGI (SK-MEL-2 melanoma): > 100 µM
- TGI (SK-MEL-28 melanoma): > 100 µM
- GI50 (SK-MEL-5 melanoma): 13.6 µM
- TGI (SK-MEL-5 melanoma): 29.9 µM
- TGI (SK-OV-3 ovarian): > 100 µM
- GI50 (SN12C renal): > 100 µM
- TGI (SN12C renal): > 100 µM
- GI50 (SNB-19 CNS): > 100 µM
- TGI (SNB-19 CNS): > 100 µM
- GI50 (SNB-75 CNS): 63.1 µM
- TGI (SNB-75 CNS): > 100 µM
- TGI (SR leukemia): > 100 µM
- TGI (SW-620 colon): > 100 µM
- GI50 (T-47D breast): 36.4 µM
- TGI (T-47D breast): > 100 µM
- TGI (TK-10 renal): > 100 µM
- TGI (U251 CNS): > 100 µM
- TGI (UACC-257 melanoma): 98 µM
- TGI (UACC-62 melanoma): > 100 µM
- TGI (UO-31 renal): 6.58 µM
